From patent publication US20070179125A1, “Aminopyrimidines useful as kinase inhibitors” (priority 2005, published 2007)
pKi: −log10 of the molar value.

Tests used:
Assay type in all cases: biochemical
[1] = target: T1, JAK3 (Homo sapiens, UniProt P52333); assay: JAK3 inhibition assay; details: 5 μM ATP, 1 μM poly(Glu)4Tyr, 1 nM JAK3, 25° C.
T1 sequence (P52333 1-1124): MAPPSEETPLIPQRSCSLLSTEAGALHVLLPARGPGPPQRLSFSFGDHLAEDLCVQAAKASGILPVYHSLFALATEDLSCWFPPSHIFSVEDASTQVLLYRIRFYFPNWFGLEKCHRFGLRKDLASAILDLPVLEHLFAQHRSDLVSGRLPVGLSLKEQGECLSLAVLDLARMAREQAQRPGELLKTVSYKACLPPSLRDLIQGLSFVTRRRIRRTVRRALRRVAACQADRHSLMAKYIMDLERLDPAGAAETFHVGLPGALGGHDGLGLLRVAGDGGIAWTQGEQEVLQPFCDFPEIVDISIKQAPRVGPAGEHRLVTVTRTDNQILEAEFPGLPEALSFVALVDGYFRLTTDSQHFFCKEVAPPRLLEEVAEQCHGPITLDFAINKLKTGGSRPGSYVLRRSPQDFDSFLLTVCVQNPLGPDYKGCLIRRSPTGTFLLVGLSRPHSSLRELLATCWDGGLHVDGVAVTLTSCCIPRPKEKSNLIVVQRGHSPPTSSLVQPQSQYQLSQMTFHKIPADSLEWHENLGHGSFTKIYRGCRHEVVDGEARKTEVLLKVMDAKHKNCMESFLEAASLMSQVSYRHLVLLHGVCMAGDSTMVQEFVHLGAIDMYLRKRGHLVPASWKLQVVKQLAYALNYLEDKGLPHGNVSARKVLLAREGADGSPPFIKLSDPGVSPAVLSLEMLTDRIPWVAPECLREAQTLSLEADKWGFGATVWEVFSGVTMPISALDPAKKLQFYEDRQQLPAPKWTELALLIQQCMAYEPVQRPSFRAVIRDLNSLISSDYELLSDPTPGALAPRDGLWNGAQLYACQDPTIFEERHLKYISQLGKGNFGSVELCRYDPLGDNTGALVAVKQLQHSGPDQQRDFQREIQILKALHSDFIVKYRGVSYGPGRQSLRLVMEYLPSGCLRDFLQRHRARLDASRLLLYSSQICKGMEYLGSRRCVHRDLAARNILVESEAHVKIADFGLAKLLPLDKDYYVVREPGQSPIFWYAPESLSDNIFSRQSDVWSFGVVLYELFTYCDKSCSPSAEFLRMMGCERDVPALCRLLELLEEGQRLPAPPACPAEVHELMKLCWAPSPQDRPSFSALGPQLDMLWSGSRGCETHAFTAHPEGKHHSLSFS
Experimental: (§1) Compounds were screened for their ability to inhibit JAK using the assay shown below. Reactions were carried out in a kinase buffer containing 100 mM HEPES (pH 7.4), 1 mM DTT, 10 mM MgCl2, 25 mM NaCl, and 0.01% BSA.
(§2) Substrate concentrations in the assay were 5 μM ATP (200 uCi/μmole ATP) and 1 μM poly(Glu)4Tyr. Reactions were carried out at 25° C. and 1 nM JAK3.
(§3) To each well of a 96 well polycarbonate plate was added 1.5 μl of a candidate JAK3 inhibitor along with 50 μl of kinase buffer containing 2 μM poly(Glu)4Tyr and 10 μM ATP. This was then mixed and 50 μl of kinase buffer containing 2 nM JAK3 enzyme was added to start the reaction. After 20 minutes at room temperature (25 C), the reaction was stopped with 50 μl of 20% trichloroacetic acid (TCA) that also contained 0.4 mM ATP. The entire contents of each well were then transferred to a 96 well glass fiber filter plate using a TomTek Cell Harvester. After washing, 60 μl of scintillation fluid was added and ^33P incorporation detected on a Perkin Elmer TopCount.

[2] = target: Aurora-1 (Aurora B) (Homo sapiens, UniProt Q96GD4); assay: Aurora-1 (Aurora B) inhibition assay (radiometric); details: 800 μM ATP, Kemptide, 25° C.
Sequence of Aurora-1 (Aurora B) (Q96GD4 whole entry, species assumed): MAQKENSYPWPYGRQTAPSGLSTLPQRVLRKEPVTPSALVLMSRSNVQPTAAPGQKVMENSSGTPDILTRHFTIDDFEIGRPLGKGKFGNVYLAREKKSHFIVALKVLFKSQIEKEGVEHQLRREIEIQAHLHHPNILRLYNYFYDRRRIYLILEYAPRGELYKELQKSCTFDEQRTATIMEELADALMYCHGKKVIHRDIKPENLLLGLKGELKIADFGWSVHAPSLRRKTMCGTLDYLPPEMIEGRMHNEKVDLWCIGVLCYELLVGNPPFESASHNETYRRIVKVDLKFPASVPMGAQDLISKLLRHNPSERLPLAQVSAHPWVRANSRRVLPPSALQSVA
Experimental: An assay buffer solution was prepared which consisted of 25 mM HEPES (pH 7.5), 10 mM MgCl2, 0.1% BSA and 10% glycerol. A 22 nM Aurora-B solution, also containing 1.7 mM DTT and 1.5 mM Kemptide (LRRASLG), was prepared in assay buffer. To 22 μL of the Aurora-B solution, in a 96-well plate, was added 2 μl of a compound stock solution in DMSO and the mixture allowed to equilibrate for 10 minutes at 25° C. The enzyme reaction was initiated by the addition of 16 μl stock [γ-^33P]-ATP solution (˜20 nCi/μL) prepared in assay buffer, to a final assay concentration of 800 μM. The reaction was stopped after 3 hours by the addition of 16 μL 500 mM phosphoric acid and the levels of ^33P incorporation into the peptide substrate were determined by the following method.
A phosphocellulose 96-well plate (Millipore, Cat no. MAPHNOB50) was pre-treated with 100 μL of a 100 mM phosphoric acid prior to the addition of the enzyme reaction mixture (40 μL). […] Levels of non-enzyme catalyzed background radioactivity were determined by adding 16 μL of the 500 mM phosphoric acid to control wells, containing all assay components (which acts to denature the enzyme), prior to the addition of the [γ-^33P]-ATP solution. Levels of enzyme catalyzed ^33P incorporation were calculated by subtracting mean background counts from those measured at each inhibitor concentration. […]

[3] = target: T2, human Itk kinase (Homo sapiens, UniProt Q08881); assay: Itk inhibition assay, radioactivity-based; details: Ki(app); 7.5 μM ATP, 3 μM SAM68 peptide, 50 nM Itk, 25° C.
T2 sequence (Q08881 1-620): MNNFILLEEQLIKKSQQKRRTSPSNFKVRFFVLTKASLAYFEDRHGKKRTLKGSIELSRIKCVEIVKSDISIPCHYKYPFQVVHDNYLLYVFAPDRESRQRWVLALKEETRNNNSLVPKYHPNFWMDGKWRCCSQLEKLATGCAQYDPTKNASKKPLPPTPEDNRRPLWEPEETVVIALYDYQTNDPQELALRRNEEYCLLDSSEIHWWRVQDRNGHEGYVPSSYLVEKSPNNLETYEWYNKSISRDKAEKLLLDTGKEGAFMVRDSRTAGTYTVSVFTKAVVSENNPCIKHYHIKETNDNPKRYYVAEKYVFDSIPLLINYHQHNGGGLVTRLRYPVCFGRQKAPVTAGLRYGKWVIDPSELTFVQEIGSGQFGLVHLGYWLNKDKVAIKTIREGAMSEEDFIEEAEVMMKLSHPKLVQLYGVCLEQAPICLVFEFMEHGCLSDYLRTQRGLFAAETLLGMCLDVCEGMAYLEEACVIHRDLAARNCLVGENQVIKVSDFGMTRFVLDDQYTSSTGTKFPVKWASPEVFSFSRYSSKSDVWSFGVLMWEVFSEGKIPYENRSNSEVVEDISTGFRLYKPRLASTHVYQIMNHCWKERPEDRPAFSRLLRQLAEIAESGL
Experimental: The compounds of the present invention were evaluated as inhibitors of human Itk kinase using a radioactivity-based assay.
Assays were carried out in a mixture of 20 mM MOPS (pH 7.0), 10 mM MgCl2, 0.1% BSA and 1 mM DTT. Final substrate concentrations in the assay were 7.5 μM [γ-^33P]ATP (400 μCi ^33P ATP/μmol ATP, Amersham Pharmacia Biotech/Sigma Chemicals) and 3 μM peptide (SAM68 protein Δ332-443). Assays were carried out at 25° C. in the presence of 50 nM Itk. An assay stock buffer solution was prepared containing all of the reagents listed above, with the exception of ATP and the test compound of interest. 50 μL of the stock solution was placed in a 96 well plate followed by addition of 2 μL of DMSO stock containing serial dilutions of the test compound (typically starting from a final concentration of 50 μM with 2-fold serial dilutions) in duplicate (final DMSO concentration 2%). The plate was pre-incubated for 10 minutes at 25° C. and the reaction initiated by addition of 50 μL [γ-^33P]ATP (final concentration 7.5 μM).
The reaction was stopped after 10 minutes by the addition of 100 μL 0.2M phosphoric acid+0.01% TWEEN 20. […]
Ki(app) data were calculated from non-linear regression analysis of the initial rate data using the Prism software package (GraphPad Prism version 3.0cx for Macintosh, GraphPad Software, San Diego Calif., USA).

[4] = target: T3, Aurora-2 (Aurora A) (Homo sapiens, UniProt O14965); assay: Aurora-2 (Aurora A) inhibition assay, coupled enzyme; details: 400 μM ATP, 570 μM Kemptide, 40 nM Aurora-2, 30° C.
T3 sequence (O14965 1-403): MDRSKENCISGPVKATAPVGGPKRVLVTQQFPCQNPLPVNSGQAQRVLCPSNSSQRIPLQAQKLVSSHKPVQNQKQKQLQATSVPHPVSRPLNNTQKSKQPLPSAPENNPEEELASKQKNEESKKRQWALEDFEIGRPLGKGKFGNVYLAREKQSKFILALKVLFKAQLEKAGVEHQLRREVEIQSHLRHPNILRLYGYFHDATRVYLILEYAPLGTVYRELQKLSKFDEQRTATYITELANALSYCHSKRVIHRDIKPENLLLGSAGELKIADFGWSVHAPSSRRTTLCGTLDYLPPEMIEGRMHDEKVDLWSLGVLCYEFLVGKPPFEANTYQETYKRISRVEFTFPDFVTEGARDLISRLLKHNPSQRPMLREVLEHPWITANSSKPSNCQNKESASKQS
Experimental: Compounds were screened for their ability to inhibit Aurora-2 using a standard coupled enzyme assay (Fox et al., Protein Sci., (1998) 7, 2249). Assays were carried out in a mixture of 100 mM Hepes (pH7.5), 10 mM MgCl2, 1 mM DTT, 25 mM NaCl, 2.5 mM phosphoenolpyruvate, 300 μM NADH, 30 μg/ml pyruvate kinase and 10 μg/ml lactate dehydrogenase. Final substrate concentrations in the assay are 400 μM ATP (Sigma Chemicals) and 570 μM peptide (Kemptide, American Peptide, Sunnyvale, Calif.). Assays were carried out at 30° C. and in the presence of 40 nM Aurora-2.
An assay stock buffer solution was prepared containing all of the reagents listed above, with the exception of Aurora-2 and the test compound of interest. 55 μl of the stock solution was placed in a 96 well plate followed by addition of 2 μl of DMSO stock containing serial dilutions of the test compound (typically starting from a final concentration of 7.5 μM). The plate was preincubated for 10 minutes at 30° C. and the reaction initiated by addition of 10 μl of Aurora-2. Initial reaction rates were determined with a Molecular Devices SpectraMax Plus plate reader over a 10 minute time course. IC50 and Ki data were calculated from non-linear regression analysis using the Prism software package (GraphPad Prism version 3.0cx for Macintosh, GraphPad Software, San Diego Calif., USA).

[5] = target: JAK-2 enzyme (Homo sapiens, UniProt O60674); assay: JAK2 inhibition assay; details: 12 μM ATP, 15 μM poly(Glu)4Tyr
Sequence of JAK-2 enzyme (O60674 whole entry, species assumed): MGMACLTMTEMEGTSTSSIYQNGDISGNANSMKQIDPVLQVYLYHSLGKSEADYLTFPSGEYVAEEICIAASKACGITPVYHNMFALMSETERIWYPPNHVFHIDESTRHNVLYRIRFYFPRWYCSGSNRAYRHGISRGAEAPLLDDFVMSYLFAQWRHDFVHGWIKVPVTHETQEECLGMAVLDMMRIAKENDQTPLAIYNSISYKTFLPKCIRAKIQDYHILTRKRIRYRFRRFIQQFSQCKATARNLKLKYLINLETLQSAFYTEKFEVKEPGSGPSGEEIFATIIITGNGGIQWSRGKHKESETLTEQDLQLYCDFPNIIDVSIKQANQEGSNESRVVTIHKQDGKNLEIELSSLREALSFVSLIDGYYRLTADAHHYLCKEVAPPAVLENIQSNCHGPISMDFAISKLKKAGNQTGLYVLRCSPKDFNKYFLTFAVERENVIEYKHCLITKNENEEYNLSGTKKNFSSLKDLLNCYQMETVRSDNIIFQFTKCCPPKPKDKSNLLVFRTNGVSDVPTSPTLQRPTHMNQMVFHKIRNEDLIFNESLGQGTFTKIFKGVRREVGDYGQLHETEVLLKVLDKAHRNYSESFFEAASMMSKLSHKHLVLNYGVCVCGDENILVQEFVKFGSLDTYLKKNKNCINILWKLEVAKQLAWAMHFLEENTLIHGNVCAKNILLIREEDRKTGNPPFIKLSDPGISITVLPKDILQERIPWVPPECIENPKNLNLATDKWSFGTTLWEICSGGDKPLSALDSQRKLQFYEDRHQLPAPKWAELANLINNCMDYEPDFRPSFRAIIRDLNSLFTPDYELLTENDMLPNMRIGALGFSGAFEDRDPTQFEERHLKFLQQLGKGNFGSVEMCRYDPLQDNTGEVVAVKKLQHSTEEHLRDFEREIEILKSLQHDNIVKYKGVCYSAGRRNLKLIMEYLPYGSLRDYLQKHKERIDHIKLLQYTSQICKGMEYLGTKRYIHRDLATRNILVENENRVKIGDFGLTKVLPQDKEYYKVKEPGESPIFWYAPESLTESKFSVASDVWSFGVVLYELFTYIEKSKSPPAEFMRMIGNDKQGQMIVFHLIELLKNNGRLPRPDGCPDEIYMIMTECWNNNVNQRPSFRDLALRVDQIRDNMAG
Experimental: as §1, §2, §3
The assays are as described above in Example 3 except that JAK-2 enzyme is used, the final poly(Glu)4Tyr concentration is 15 μM, and final ATP concentration is 12 μM.

Row | pKi [3] | pKi [4] | pKi [5] | Structure (SMILES) | pKi [1] | pKi [2]
1 | – | – | – | Cc1cc(Nc2cc(N3CC(F)(C4CC4)C3)nc(O[C@H]3CCN(C(=O)c4cc(Cl)ccc4F)C3)n2)[nH]n1 [Compound I-3, (S)-(5-chloro-2-fluorophenyl)(3-(4-(3-cyclopropyl-3-fluoroazetidin-1-yl)-6-(3-methyl-1H-pyrazol-5-ylamino)pyrimidin-2-yloxy)pyrrolidin-1-yl)methanone] | > 6.60 | > 7.60
2 | > 6.00 | > 7.30 | > 6.60 | Cc1cc(Nc2cc(N3CCC3)nc(O[C@H]3CCN(C(=O)OC(C)(C)C)C3)n2)[nH]n1 [Compound I-1, (S)-3-[4-Azetidin-1-yl-6-(5-methyl-2H-pyrazol-3-ylamino)-pyrimidin-2-yloxy]-pyrrolidine-1-carboxylic acid tert-butyl ester] | – | –
